US11292782B2, “Diarylhydantoin compounds and methods of use thereof” (Nuvation Bio Inc., priority 2018, dated 2022)

How the values were obtained:
Type in all cases: cell-based
LNCaP cells = assay: Cell proliferation assay, LNCaP (CellTiter-Glo); details: 6 days
Method: (§1) LNCaP-abl (3,000 cells/well, received from Dr. Myles Brown, Dana Farber Cancer Institute), 22RV1 (1,000 cells/well), LNCaP (5,000 cells/well), or COS (3,000 cells/well) cells were plated in 96 well plates in 50 μl RPMI+10% FBS (Fisher Scientific, Waltham, Mass.). LNCaP, COS, and 22RV1 cells were obtained from ATCC. Cells were treated in RPMI+10% FBS with test articles, ranging from 1 nM to 10 μM. Three days later, viable cells (LNCaP-abl, 22RV1, and COS) were measured by CellTiter-Glo assay (Promega, Madison, Wis.). For LNCaP cells, medium containing test article was changed after 3 days of treatment, and after an additional 3 days of culture, viable cells were measured by CellTiter-Glo assay.
(§2) The LNCaP cell line is androgen responsive with AR and PSA expression. It contains a T877A mutation in the AR. The 22RV1 cell line is positive for AR and PSA with additional AR splice variants and is insensitive to androgen for cell proliferation. The LNCaP-abl cell line expresses both AR and GR but is insensitive to androgen for cell proliferation. COS-7 is used as an AR negative cell line in this experiment.

FKBP5 gene expression = assay: AR activity assay: FKBP5 gene expression (realtime PCR); details: 1 and 10 μM
Method: (§3) LNCaP (ATCC) or LNCaP-EnzR (MR49F was received from Dr. Martin Gleave, University of British Columbia) cells were plated in 96 well plates at 15,000-20,000 cells/well in RPMI+1% csFBS without phenol red. Cells were treated 2 days after plating and harvested 18 hours after treatment (for TMPRSS2) or 24 hours after treatment (for PSA and FKBP5). RNA was isolated (cells to ct kit, Life Technologies), cDNA synthesized (cells to ct kit), and expression of TMPRSS2, PSA or FKBP5 and expression of GAPDH were measured using realtime PCR primers and probes (TaqMan probes, Life Technologies) by realtime PCR (ABI 7900, Life Technologies). Relative expression was calculated using ddct method.

22RV1 cells = assay: Cell proliferation assay, 22RV1 (CellTiter-Glo); details: 3 days; for cell proliferation, % of vehicle at 3 μM: 22RV1, 3 μM; for cell proliferation, % of vehicle at 10 μM: 22RV1, 10 μM
Method: as §1, §2

LNCaP-abl cells = assay: Cell proliferation assay, LNCaP-abl (CellTiter-Glo); details: 72 h, 3 days; for activity at 3 µM: read-out: cell proliferation, % of vehicle at 3 μM; for activity at 10 µM: read-out: cell proliferation, % of vehicle at 10 μM
Method: as §1, §2

GR = GR (Homo sapiens (Human), UniProt P04150); assay: GR antagonist assay (GRE-LUC luciferase, transfected COS-7 cells, with 0.1 nM dexamethasone); details: 10 μM, in the presence of 0.1 nM dexamethasone
Method: COS-7 cells (ATCC, Manassas, Va.) were plated in 24 well plates in DME+5% csFBS without phenol red at 70,000 cells/well. Once the cells attached to the plates (typically after overnight incubation after plating), they were transfected in OPTIMEM medium (Life Technologies) using lipofectamine reagent (Life Technologies) with 0.25 μg GRE-LUC, 25 ng pCR3.1 GR, and 10 ng CMV-renilla LUC per well. Twenty-four hours after transfection, the cells were fed with DME+5% csFBS without phenol red (Fisher Scientific, Waltham, Mass.) and treated with the test compounds (1 pM to 10 μM dose range) in the presence of 0.1 nM dexamethasone (Sigma, St. Louis, Mo.). Sixteen to twenty-four hours after treatment, a luciferase assay was performed using the Dual Luciferase assay kit (Promega, Madison, Wis.). Firefly luciferase values were normalized to Renilla luciferase numbers.

GFP-AR = GFP-AR (Homo sapiens (Human), UniProt P10275); details: COS cells, GFP-AR, 30 min pre-treatment, then R1881 for four hours
Method: COS cells plated in chamber slides in DME+5% csFBS without phenol red were transfected with […] GFP-AR using lipofectamine reagent.

Human AR [1] = target: T1, Human AR (Homo sapiens (Human), UniProt P10275); assay: AR antagonist assay (GRE-LUC luciferase, transfected HEK-293 cells, with 0.1 nM R1881); details: with 0.1 nM R1881
Method: (§4) Human AR cDNA cloned into pCMV vector, GRE-LUC, and CMV-renilla-LUC were used to transfect cells. HEK-293 cells (ATCC) were plated at 120,000 cells per well of a 24 well plate in DME+5% csFBS (Fisher Scientific, Waltham, Mass.). The cells were transfected using Lipofectamine (Life Technologies, Carlsbad, Calif.) with 0.25 μg GRE-LUC, 0.010 μg CMV-LUC (renilla luciferase) and 25 ng of the AR. […] Luciferase assay was performed 48 hrs after transfection. Firefly luciferase assay values were normalized to renilla luciferase values and were graphed using graphpad prism software (La Jolla, Calif.). […] The IC50 or EC50 values were determined using non-linear regression and […] logistics fitting.

PSA gene expression = assay: AR activity assay: PSA gene expression (realtime PCR); details: 1 and 10 μM
Method: as §3

COS-7 cells = assay: Cell proliferation assay, COS-7 (CellTiter-Glo); details: 3 days; for cell proliferation, % of vehicle at 3 μM: COS-7, 3 μM; for cell proliferation, % of vehicle at 10 μM: COS-7, 10 μM
Method: as §1, §2

Human AR [2] = target: T1, Human AR; assay: AR agonist assay (GRE-LUC luciferase, transfected HEK-293 cells, test article alone); details: HEK-293 transfected with human AR, read-out: AR Agonist IC50
Method: as §4

MR49F cells = assay: Cell proliferation assay, MR49F enzalutamide-resistant LNCaP cells (SRB); details: six days
Method: The outer wells of the 96 well plates were not used for treatment due to potential evaporation. Cells were treated with selected doses of the compounds with the final concentration of DMSO kept at 0.1%. The cells were re-treated three days later. At the end of six days of treatment, the cells were fixed using 40% w/v trichloroacetic acid and a […] (SRB) assay was performed to determine the cell viability.

[3] = tested on: TMPRSS2 expression in LNCaP cells; assay: AR activity assay: TMPRSS2 gene expression in LNCaP cells (realtime PCR); details: 1 and 10 μM, in the presence of 0.1 nM R1881
Method: as §3

[4] = tested on: TMPRSS2 expression in LNCaP-EnzR cells; assay: AR activity assay: TMPRSS2 gene expression in LNCaP-EnzR (MR49F) cells (realtime PCR); details: enzalutamide resistant LNCaP-EnzR cells, 1 and 10 μM
Method: as §3

T1 sequence (P10275 whole entry): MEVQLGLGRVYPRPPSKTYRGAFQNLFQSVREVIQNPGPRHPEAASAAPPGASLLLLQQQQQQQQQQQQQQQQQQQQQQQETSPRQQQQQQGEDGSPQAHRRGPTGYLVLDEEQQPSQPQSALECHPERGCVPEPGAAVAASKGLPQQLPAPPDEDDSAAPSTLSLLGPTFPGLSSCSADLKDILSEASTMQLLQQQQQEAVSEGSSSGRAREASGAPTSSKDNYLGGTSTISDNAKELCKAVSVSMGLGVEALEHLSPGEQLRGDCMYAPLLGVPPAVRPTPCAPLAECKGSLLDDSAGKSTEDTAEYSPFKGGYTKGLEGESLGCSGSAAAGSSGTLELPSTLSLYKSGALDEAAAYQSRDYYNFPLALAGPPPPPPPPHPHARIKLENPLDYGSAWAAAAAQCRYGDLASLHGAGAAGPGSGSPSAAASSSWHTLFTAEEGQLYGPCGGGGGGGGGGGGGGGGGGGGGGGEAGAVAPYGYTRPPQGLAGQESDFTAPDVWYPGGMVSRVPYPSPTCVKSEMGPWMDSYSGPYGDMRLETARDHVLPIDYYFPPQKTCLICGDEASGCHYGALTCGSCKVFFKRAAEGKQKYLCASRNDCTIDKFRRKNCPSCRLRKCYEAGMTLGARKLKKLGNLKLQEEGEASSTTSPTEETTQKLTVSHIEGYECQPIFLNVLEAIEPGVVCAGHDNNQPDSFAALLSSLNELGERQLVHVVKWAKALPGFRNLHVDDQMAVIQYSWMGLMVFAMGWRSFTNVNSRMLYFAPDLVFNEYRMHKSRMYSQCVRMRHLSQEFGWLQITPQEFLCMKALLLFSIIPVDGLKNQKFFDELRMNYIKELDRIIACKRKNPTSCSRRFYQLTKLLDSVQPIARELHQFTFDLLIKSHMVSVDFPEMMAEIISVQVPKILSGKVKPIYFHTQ
GFP-AR, sequence (P10275 whole entry, looked up): as the sequence (P10275 whole entry) above
GR, sequence (P04150 whole entry): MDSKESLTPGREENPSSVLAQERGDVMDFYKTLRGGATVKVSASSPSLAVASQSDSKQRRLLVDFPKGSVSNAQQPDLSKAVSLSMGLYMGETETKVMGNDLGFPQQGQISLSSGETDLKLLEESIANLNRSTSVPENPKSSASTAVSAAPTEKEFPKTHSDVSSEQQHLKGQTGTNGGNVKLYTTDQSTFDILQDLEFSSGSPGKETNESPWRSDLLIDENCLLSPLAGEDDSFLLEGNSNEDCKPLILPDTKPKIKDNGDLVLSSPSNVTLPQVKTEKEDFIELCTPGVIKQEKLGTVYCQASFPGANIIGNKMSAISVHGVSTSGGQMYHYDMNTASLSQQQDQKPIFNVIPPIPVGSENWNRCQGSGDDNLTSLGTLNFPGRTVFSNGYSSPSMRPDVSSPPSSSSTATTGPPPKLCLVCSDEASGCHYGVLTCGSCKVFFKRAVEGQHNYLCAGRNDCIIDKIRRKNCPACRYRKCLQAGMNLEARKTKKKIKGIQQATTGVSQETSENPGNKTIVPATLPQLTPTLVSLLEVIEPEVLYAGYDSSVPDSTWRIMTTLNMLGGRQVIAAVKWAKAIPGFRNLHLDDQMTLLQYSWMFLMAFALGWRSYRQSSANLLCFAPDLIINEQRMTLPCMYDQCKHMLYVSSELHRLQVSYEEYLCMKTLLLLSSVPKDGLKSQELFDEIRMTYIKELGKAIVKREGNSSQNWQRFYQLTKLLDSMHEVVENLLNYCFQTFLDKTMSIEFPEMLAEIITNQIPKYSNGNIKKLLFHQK

| Structure (SMILES) | cell proliferation, % of vehicle at 3 μM (LNCaP cells) | cell proliferation, % of vehicle at 10 μM (LNCaP cells) | FKBP5 gene expression (FKBP5 gene expression) | cell proliferation, % of vehicle at 3 μM (22RV1 cells) | cell proliferation, % of vehicle at 10 μM (22RV1 cells) | activity at 3 µM (LNCaP-abl cells) | activity at 10 µM (LNCaP-abl cells) | GR antagonist assay, % of vehicle (GR) | AR localization (cytoplasmic or nuclear) (GFP-AR) | IC50 (Human AR [1]) | PSA gene expression (PSA gene expression) | cell proliferation, % of vehicle at 3 μM (COS-7 cells) | cell proliferation, % of vehicle at 10 μM (COS-7 cells) | EC50 (Human AR [2]) | cell proliferation, % of vehicle at 3 μM (MR49F cells; 3 μM) | cell proliferation, % of vehicle at 10 μM (MR49F cells; 10 μM) | TMPRSS2 expression [3] | TMPRSS2 expression [4] |
| --- | --- | --- | --- | --- | --- | --- | --- | --- | --- | --- | --- | --- | --- | --- | --- | --- | --- | --- |
| CC1(C)C(=O)N(c2ccc(C#N)c(C(F)(F)F)c2)C(=S)N1c1ccc(CNC(=O)c2ccccn2)c(F)c1 [Compound 8] | 63% | 19% | significant inhibition | 87% | 90% | 83% | 62% | 52% | nuclear | 47.2 nM | significant inhibition | 99% | 91% | > 10000 nM | – | – | – | – |
| Cc1ncsc1C(=O)NCc1ccc(N2C(=S)N(c3ccc(C#N)c(C(F)(F)F)c3)C(=O)C2(C)C)cc1F [Compound 9] | 55% | 21% | – | 77% | 41% | 89% | 27% | 41% | nuclear | 49.1 nM | – | 92% | 99% | > 10000 nM | 53% | 29% | – | – |
| CNC(=O)c1ccc(N2C(=S)N(c3ccc(C#N)c(C(F)(F)F)c3)C(=O)C2(C)C)cc1F [Enzalutamide, enzalutamide] | – | – | – | – | – | – | – | – | – | – | – | – | – | – | – | – | inhibitory effects | failed to reduce TMPRSS2 expression |
